Assays:
[1] = tested on: Radical scavenging activity; test: Antioxidant activity assessed as DPPH free radical scavenging activity at 100 uM after 20 mins; assay type: functional
[2] = tested on: Radical scavenging activity; test: Antioxidant activity assessed as DPPH free radical scavenging activity at 100 uM after 60 mins; assay type: functional
Rattus norvegicus = test: Antiinflammatory activity in Fisher 344 rat assessed as inhibition of carrageenan-induced paw edema at 0.01 mmol/kg, ip measured 3.5 hrs after carrageenan challenge relative to control; assay type: functional; parameters: scale not given: the % may be the effect or the level left
[3] = Induction of NO release in phosphate buffer pH 7.4 containing 5 mM L-cysteine assessed as nitrite level at 100 uM after 60 mins by Griess assay; assay type: physicochemical; conditions: pH 7.4, 1 h
[4] = Induction of NO release in phosphate buffer pH 7.4 containing 0.5 mM thiophenol assessed as nitrite level at 100 uM after 60 mins by Griess assay; assay type: physicochemical; conditions: pH 7.4, 1 h
[5] = tested on: Radical scavenging activity; test: Antioxidant activity assessed as DPPH free radical scavenging activity at 50 uM after 20 mins; assay type: functional
[6] = tested on: Radical scavenging activity; test: Antioxidant activity assessed as DPPH free radical scavenging activity at 50 uM after 60 mins; assay type: functional
[7] = Induction of NO release in phosphate buffer pH 7.4 containing 1 mM L-cysteine assessed as nitrite level at 100 uM after 60 mins by Griess assay; assay type: physicochemical; conditions: pH 7.4, 1 h
[8] = Induction of NO release in phosphate buffer pH 7.4 containing 0.5 mM L-cysteine assessed as nitrite level at 100 uM after 60 mins by Griess assay; assay type: physicochemical; conditions: pH 7.4, 1 h
[9] = target: Lipoxygenase (Glycine max) (UniProt Q39829); test: Inhibition of soybean lipoxygenase at 100 uM by UV spectrophotometry; parameters: scale not given: the % may be the effect or the level left

| Activity [3] [%] | Activity [4] [%] | Activity [9] [%] | Compound | Activity [1] [%] | Activity [2] [%] | further results |
| --- | --- | --- | --- | --- | --- | --- |
| 2 | 4 |  | CC(C)Nc1nc(Cc2ccc(Cl)cc2)no1 | 8 | 11 | Activity (Rattus norvegicus): 43% |
| 19 |  | 38 | c1ccc(-c2noc(NC3CCCCC3)n2)cc1 |  |  | Activity (Rattus norvegicus): 51%; Activity [7]: 2%; Activity [8]: 4% |
| 4 |  |  | NC(=NO)c1cccc([N+](=O)[O-])c1 |  |  |  |
| 12 | 39 |  | CC(=O)N(c1nc(Cc2ccc(Cl)cc2)no1)C1CCCCC1 | 2 | 5 | Activity [7]: 18%; Activity [8]: 27.5% |
| 14 |  |  | COc1ccc(-c2noc(NC3CCCCC3)n2)cc1 |  |  | Activity [7]: 2% |
|  |  | 25.5 | CC(=O)N(c1nc(-c2ccc(C)cc2)no1)C1CCCCC1 | 3 | 3 |  |
| 3 | 3 | 74 | O=[N+]([O-])c1cccc(-c2noc(NC3CCCCC3)n2)c1 | 11 | 11 | Activity (Rattus norvegicus): 40% |
|  | 3 |  | NC(Cc1ccc(Cl)cc1)=NO |  |  |  |
| 8 | 47 |  | CC(=O)N(c1nc(-c2ccc([N+](=O)[O-])cc2)no1)C1CCCCC1 | 3 | 4 | Activity [7]: 8%; Activity [8]: 12% |
|  | 7.5 |  | c1ccc(Cc2noc(NC3CCCCC3)n2)cc1 | 9 | 9 |  |

The remaining lines, values behind:

| Compound | Activity [3] [%] | Activity [4] [%] | Activity [9] [%] | Activity [1] [%] | Activity [2] [%] | further results |
| --- | --- | --- | --- | --- | --- | --- |
| Clc1ccc(Cc2noc(NC3CCCCC3)n2)cc1 |  |  |  | 7 | 7 |  |
| N/C(=N\O)c1ccccc1 |  |  |  | 19 | 30 | Activity [5]: 8% |
| Cc1ccc(/C(N)=N/O)cc1 | 8 |  |  | 21 | 26 | Activity [5]: 15%; Activity [6]: 14%; Activity (Rattus norvegicus): 41% |
| CC(=O)N(c1nc(-c2cccc([N+](=O)[O-])c2)no1)C1CCCCC1 | 33 | 71 |  | 1 | 2 | Activity [7]: 33%; Activity [8]: 42.5% |
| CCCc1noc(NC(C)C)n1 |  |  |  | 7 | 7 |  |
| CC(C)Nc1nc(C2CCCCC2)no1 |  |  |  | 8 | 11 |  |
| Cc1ccc(-c2noc(NC(C)C)n2)cc1 |  |  |  |  | 18 |  |
| CC(Cc1ccc(O)c(O)c1)C(C)Cc1ccc(O)c(O)c1 (configuration not stated) |  |  | 83.7 | 84 | 91 | Activity [5]: 77%; Activity [6]: 81% |
| Cc1ccc(-c2noc(NC3CCCCC3)n2)cc1 |  |  |  |  |  | Activity (Rattus norvegicus): 33% |
| Cc1ccc(-c2noc(NCCCN(C)C)n2)cc1 |  | 21 |  | 6 | 8 | Activity [8]: 7.5% |
| CN(C)CCCNc1nc(-c2ccc([N+](=O)[O-])cc2)no1 |  | 24 | 67 | 6 | 4 | Activity [8]: 7% |
| CC(=O)N(c1nc(-c2cccc([N+](=O)[O-])c2)no1)C(C)C |  | 55 |  | 3 | 4 |  |
| COc1ccc(C(=N)NO)cc1 | 4 |  |  | 57 | 57 | Activity [5]: 35%; Activity [6]: 44%; Activity (Rattus norvegicus): 45%; Activity [7]: 5%; Activity [8]: 4% |
| N/C(Cc1ccc(Cl)cc1)=N\O |  |  | 19 |  | 16 | Activity (Rattus norvegicus): 47% |
| NC(=NO)c1ccccc1 [BENZAMIDOXIME] |  | 6 |  |  |  | Activity [8]: 2% |
| O=[N+]([O-])c1ccc(Cc2noc(NC3CCCCC3)n2)cc1 |  |  |  | 7 | 7 |  |
| O=[N+]([O-])c1ccc(-c2noc(NC3CCCCC3)n2)cc1 |  |  | > 5 |  |  |  |
| CC(C)Nc1nc(-c2cccc([N+](=O)[O-])c2)no1 |  | 7 | 88 | 6 | 8 |  |
| N/C(=N\O)c1cccc([N+](=O)[O-])c1 |  |  | 32 | 7 | 15 | Activity (Rattus norvegicus): 26% |
| COc1ccc2c(c1)c(CC(=O)O)c(C)n2C(=O)c1ccc(Cl)cc1 [INDOMETHACIN] |  |  |  |  |  | Activity (Rattus norvegicus): 47% |
| CCNc1nc(-c2ccc([N+](=O)[O-])cc2)no1 |  |  |  |  | 9 |  |
| N/C(=N\O)c1ccc([N+](=O)[O-])cc1 |  |  | 24 | 9 | 18 |  |

Source: ChEMBL document CHEMBL1629473, “Convenient synthesis and biological profile of 5-amino-substituted 1,2,4-oxadiazole derivatives” (Eur J Med Chem, 2010)
